Measurements: ChEMBL document CHEMBL5236669, “Identification of pyrimidinyl piperazines as non-iminosugar glucocerebrosidase (GCase) pharmacological chaperones” (Bioorg Med Chem Lett, 2023)
pEC50: −log10 of the molar value. Values after ≈ are worked out from the molar mass of the structure shown.

Columns and labels:
[1] = molecular target: Lysosomal acid glucosylceramidase (Homo sapiens, UniProt P04062, N409S); test: Chaperone activity at GCase N370S GBA mutant in patient derived fibroblast cell using 4-methylumbelliferyl-beta-D-glucopyranoside as substrate assessed as substrate cleavage by measuring concentration required for maximal response incubated for 5 days by fluorescence based assay
[2] = Solubility of the compound in PBS; type: physicochemical
[3] = test system: LLC-PK1; test: Corrected flux ratio of permeability in pig LLC-PK1 cells overexpressing MDR1 to pig LLC-PK1 cells; type: ADME, cell-based, Sus scrofa
[4] = Metabolic stability in human liver microsomes assessed as intrinsic clearance; type: ADME, Microsome; conditions: read-out: CLH

Chain of Lysosomal acid glucosylceramidase (P04062 40-536 N409S limits assumed): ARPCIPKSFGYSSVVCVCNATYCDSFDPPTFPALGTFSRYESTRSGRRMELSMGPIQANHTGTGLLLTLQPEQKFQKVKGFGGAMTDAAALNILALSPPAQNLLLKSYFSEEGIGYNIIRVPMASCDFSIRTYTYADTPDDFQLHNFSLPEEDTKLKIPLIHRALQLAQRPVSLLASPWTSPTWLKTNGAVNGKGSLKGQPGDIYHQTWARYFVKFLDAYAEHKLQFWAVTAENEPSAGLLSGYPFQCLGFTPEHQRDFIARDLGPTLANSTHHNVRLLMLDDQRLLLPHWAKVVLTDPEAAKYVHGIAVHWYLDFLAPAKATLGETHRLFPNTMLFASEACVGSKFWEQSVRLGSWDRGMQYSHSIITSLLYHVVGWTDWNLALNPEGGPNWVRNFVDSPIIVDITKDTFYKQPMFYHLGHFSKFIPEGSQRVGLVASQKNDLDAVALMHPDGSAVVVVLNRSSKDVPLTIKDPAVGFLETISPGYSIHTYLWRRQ

Molecule Cc1cc(N2CCN(C(=O)c3ccccc3C)CC2)nc(N2CCC(F)(F)C2)n1 has a pEC50 [1] of 5.85.
Work on CC(C)(C)c1ccc(C(=O)N2CCN(c3nc(N4CCCC4)nc4c3CCC4)CC2)cc1 yielded a solubility [2] of 2 µM (≈ 0.867 µg/mL).
For Cc1ccc(C(=O)N2CCN(c3cc(C)nc(N4CCCC4)n3)CC2)cc1, the pEC50 [1] was 7.15.
Cc1ccccc1C(=O)N1CCN(c2nc(N3CCCC3)nc(C)c2C)CC1 gave a pEC50 [1] of 6.60.
Cc1cc(N2CCN(C(=O)c3ccccc3C)CC2)nc(N2CCC2)n1 showed a pEC50 [1] of 6.36.
In the case of Cc1cc(N2CCN(C(=O)c3ccccc3C(F)(F)F)CC2)nc(N2CCCC2)n1, the pEC50 [1] was 7.00.
Work on CC(C)(C)c1ccc(C(=O)N2CCN(c3nc(N4CCCC4)nc4c3COC4)CC2)cc1 yielded a pEC50 [1] of 6.82.
Cc1cc(N2CCN(C(=O)c3ccccc3C)CC2)nc(N2CCCCC2)n1 showed a pEC50 [1] of 6.77.
Work on Cc1cc(N2CCN(C(=O)c3ccccc3C)CC2)nc(N2CCCC2)n1 yielded a pEC50 [1] of 7.12, a Ratio [3] of 1.38 and a CLint scaled [4] of 0.104 mL/min/kg. For the same molecule, the solubility [2] was 94 µM (≈ 34.4 µg/mL).
Cc1cc(N2CCN(C(=O)c3ccc(-c4ccccc4)cc3)CC2)nc(N2CCCC2)n1 showed a pEC50 [1] of 7.24.
For Cc1cc(N2CCCN(C(=O)c3ccccc3C)CC2)nc(N2CCCC2)n1, the pEC50 [1] was 5.74.
In the case of Cc1ccccc1C(=O)N1CCN(c2nc(N3CCCC3)ncc2C)CC1, the pEC50 [1] was 6.92.
Molecule Cc1cc(N2CCN(C(=O)c3ccccc3C)CC2)nc(C(C)C)n1 has a pEC50 [1] of 6.82.
CC(=O)N1CCN(c2cc(C)nc(N3CCCC3)n2)CC1 showed a pEC50 [1] of 5.15.
Cc1cc(N2CCN(C(=O)c3ccc(C(C)(C)C)cc3)CC2)nc(N2CCCC2)n1 showed a CLint scaled [4] of 0.172 mL/min/kg and a solubility [2] of 68 µM (≈ 27.7 µg/mL).
Work on Cc1cc(N2CCN(C(=O)c3ccccc3F)CC2)nc(N2CCCC2)n1 yielded a pEC50 [1] of 6.77.
Cc1ccccc1C(=O)N1CCN(c2cc(C(F)(F)F)nc(N3CCCC3)n2)CC1 gave a pEC50 [1] of less than 4.60.
Molecule Cc1cc(N2CCN(C(=O)c3ccccc3Cl)CC2)nc(N2CCCC2)n1 has a pEC50 [1] of 7.20.
Cc1cc(N2CCN(C(=O)c3ccc(Cl)cc3)CC2)nc(N2CCCC2)n1 gave a pEC50 [1] of 7.40.
Cc1ccccc1C(=O)N1CCN(c2cc(CO)nc(N3CCCC3)n2)CC1 gave a pEC50 [1] of 6.66.
Work on Cc1ccccc1C(=O)N1CCN(c2nc(N3CCCC3)nc3c2CCC3)CC1 yielded a pEC50 [1] of 7.52.
Cc1cc(N2CCN(C(=O)C3CCCCC3)CC2)nc(N2CCCC2)n1 gave a pEC50 [1] of 6.44.
Work on Cc1cc(N2CCN(C(=O)c3ccccc3C)CC2)nc(N2CCCCCC2)n1 yielded a pEC50 [1] of 7.54.
Molecule Cc1cc(N2CCN(C(=O)Cc3ccccc3)CC2)nc(N2CCCC2)n1 has a pEC50 [1] of 6.34.
Work on Cc1ccccc1C(=O)N1CCN(c2ccnc(N3CCCC3)n2)CC1 yielded a pEC50 [1] of 6.17.
In the case of Cc1ccccc1C(=O)N1CCN(c2nc(N3CCCC3)nc3c2COC3)CC1, the pEC50 [1] was 6.27.
With Cc1cc(N2CCN(C(=O)c3ccncc3)CC2)nc(N2CCCC2)n1 the pEC50 [1] was 5.17.
In the case of Cc1cc(N2CCN(C(=O)c3ccccc3C)CC2)nc(N(C)C)n1, the pEC50 [1] was 6.20.
In the case of Cc1cc(N2CCN(C(=O)c3ccccc3)CC2)nc(N2CCCC2)n1, the pEC50 [1] was 7.14.
In the case of Cc1cc(N2CCN(C(=O)c3cnccn3)CC2)nc(N2CCCC2)n1, the pEC50 [1] was 5.28.
Cc1cc(N2CC3CN(C(=O)c4ccccc4C)CC3C2)nc(N2CCCC2)n1 (configuration not stated) showed a pEC50 [1] of 6.18.
Cc1cccc(C(=O)N2CCN(c3cc(C)nc(N4CCCC4)n3)CC2)c1 showed a pEC50 [1] of 6.89.
In the case of Cc1ccccc1C(=O)N1CCN(c2nc(N3CCCC3)nc3c2COCC3)CC1, the pEC50 [1] was 6.39.
Cc1cc(N2CCN(C(=O)c3cc(-c4ccccc4)nc4c3cnn4C(C)C)CC2)nc(C(C)C)n1 gave a pEC50 [1] of 7.05, a Ratio [3] of 1.26 and a CLint scaled [4] of 0.341 mL/min/kg. For the same molecule, the solubility [2] was 3 µM (≈ 1.45 µg/mL).
In the case of Cc1ccccc1C(=O)N1CCN(c2nc(N3CCCC3)nc3ccccc23)CC1, the pEC50 [1] was 7.10, the Ratio [3] was 2.19 and the CLint scaled [4] was 0.789 mL/min/kg. For the same molecule, the solubility [2] was 85 µM (≈ 34.1 µg/mL).
With Cc1cc(N2CC3(CN(C(=O)c4ccccc4C)C3)C2)nc(N2CCCC2)n1 the pEC50 [1] was 5.68.
Molecule Cc1cc(N2CCN(C(=O)c3ccccc3C)CC2)nc(N2CCOCC2)n1 has a pEC50 [1] of 5.28.
